Measured values as given in publication PMC7382816 (BMC Pharmacology & Toxicology, 2020).
Read-outs that look alike come from different tables or passages of the source.

Experiments:
[1] = Single-dose pharmacokinetics in healthy volunteers under fasting and fed (high-fat breakfast) conditions, plasma concentrations by HPLC-MS, non-compartmental analysis; format: in vivo, human; parameters: Ke: unit not given here; conditions: for AUC(0-inf) / CL/F / Vd/F / half-life / Cmax / Tmax: human, plasma; for Cmax: read-out: Cmax
Excerpt: The bioequivalence clinical trials were phase I, randomized, open-label, crossover, single-centre, with two periods separated by a 7-day washout stage. Subjects were randomised to one of the two treatment sequences, RT or TR where R was the reference formulation and T was the test formulation. Each of the clinical trial was crossover for evaluation of a test formulation compared to a reference formulation either under fed or fasting conditions. […] The treatments were allocated in a balanced manner on every inclusion day (blocks of 4 subjects). Our study adheres to CONSORT guidelines. […] Sample processing, genotyping for CYP2C19 and drug quantification were performed according to Román et al. […] Pharmacokinetic parameters were estimated from the plasma concentration–time data by non-compartmental analysis (WinNonlin Professional, version 2.0., Pharsight Corporation, USA) as reported by Román et al. […] WinNonLin Professional software version 2.0 was used for the statistical analysis. Pharmacokinetic parameters were log-transformed, and AUC and Cmax were adjusted for dose and weight. The values of pharmacokinetic parameters were expressed as mean ± standard deviation.

[2] = 40 mg; ref [27] Huber et al.; cited from earlier work
[3] = both sexes, oral, only CYP2C19*1/*1 subjects, Fast, men and women, mean ± SD
[4] = both sexes, oral, only CYP2C19*1/*1 subjects, Fed, men and women, mean ± SD
[5] = both sexes, po, Fast, all subjects, single oral dose, mean ± SD
[6] = both sexes, po, Fed (high-fat breakfast), all subjects, single oral dose, mean ± SD
[7] = female, oral, only CYP2C19*1/*1 subjects, Fast, women, mean ± SD
[8] = female, oral, only CYP2C19*1/*1 subjects, Fed, women, mean ± SD
[9] = female, po, Fast, women, single oral dose, mean ± SD
[10] = female, po, Fed, women, single oral dose, mean ± SD
[11] = male, oral, only CYP2C19*1/*1 subjects, Fast, men, mean ± SD
[12] = male, oral, only CYP2C19*1/*1 subjects, Fed, men, mean ± SD
[13] = male, po, Fast, men, single oral dose, mean ± SD
[14] = male, po, Fed, men, single oral dose, mean ± SD

Ke ([1]; Fast, all subjects, single oral dose, mean ± SD): 0.61 ± 0.21 | Ke ([1]; Fast, men, single oral dose, mean ± SD): 0.56 ± 0.23 | Ke ([1]; Fast, women, single oral dose, mean ± SD): 0.65 ± 0.18 | Ke ([1]; Fed (high-fat breakfast), all subjects, single oral dose, mean ± SD): 0.63 ± 0.21 | Ke ([1]; Fed, men, single oral dose, mean ± SD): 0.61 ± 0.23 | Ke ([1]; Fed, women, single oral dose, mean ± SD): 0.65 ± 0.19 | AUC(0-inf) [1, 3]: 6090 ± 2920 ng·h/mL | CL/F [1, 3]: 2 mL/min/kg | Vd/F [1, 3]: 0.18 ± 0.03 L/kg | half-life [1, 3]: 1.2 ± 0.4 h | Cmax [1, 3]: 2540 ± 836 ng/mL | Tmax ([1]; both sexes, oral, only CYP2C19*1/*1 subjects, Fast, men and women, mean ± SD, read-out: Tmax): 3 ± 0.7 h | AUC(0-inf) [1, 4]: 4690 ± 2300 ng·h/mL | CL/F [1, 4]: 2.67 mL/min/kg | Vd/F [1, 4]: 0.24 ± 0.05 L/kg | half-life [1, 4]: 1.2 ± 0.5 h | Cmax [1, 4]: 2660 ± 531 ng/mL | Tmax ([1]; both sexes, oral, only CYP2C19*1/*1 subjects, Fed, men and women, mean ± SD, read-out: Tmax): 5.7 ± 1.2 h | Tmax ([1]; both sexes, oral, under fasting conditions, range among subjects, read-out: Tmax range): 1.5 to 5 h | Tmax ([1]; both sexes, oral, under fed conditions, range among subjects, read-out: Tmax range): 1 to 21 h | AUC(0-inf) [1, 5]: 6950 ± 3290 ng·h/mL | CL/F [1, 5]: 1.83 mL/min/kg | Vd/F [1, 5]: 0.17 ± 0.03 L/kg | half-life [1, 5]: 1.3 ± 0.6 h | Cmax [1, 5]: 2780 ± 862 ng/mL | Tmax ([1]; both sexes, po, Fast, all subjects, single oral dose, mean ± SD, read-out: Tmax): 3 ± 0.8 h | AUC(0-inf) [1, 6]: 4630 ± 2020 ng·h/mL | CL/F [1, 6]: 2.67 mL/min/kg | Vd/F [1, 6]: 0.26 ± 0.1 L/kg | half-life [1, 6]: 1.3 ± 0.6 h | Cmax [1, 6]: 2650 ± 603 ng/mL | Tmax ([1]; both sexes, po, Fed (high-fat breakfast), all subjects, single oral dose, mean ± SD, read-out: Tmax): 7 ± 3 h | AUC lower under fed conditions ([1]; fed vs fasting, all subjects): 33% | Delay of mean Tmax (absorption) by food ([1]; fed vs fasting, all subjects): around 4 h | Delay of Tmax by food ([1]; fed vs fasting, only subjects with CYP2C19*1/*1): 2.7 h | AUC(0-inf) [1, 7]: 7820 ± 2700 ng·h/mL | CL/F [1, 7]: 1.83 mL/min/kg | Vd/F [1, 7]: 0.16 ± 0.04 L/kg | half-life [1, 7]: 1.1 ± 0.2 h | Cmax [1, 7]: 3230 ± 685 ng/mL | Tmax ([1]; female, oral, only CYP2C19*1/*1 subjects, Fast, women, mean ± SD, read-out: Tmax): 2.9 ± 0.8 h | AUC(0-inf) [1, 8]: 4910 ± 2190 ng·h/mL | CL/F [1, 8]: 2.83 mL/min/kg | Vd/F [1, 8]: 0.25 ± 0.06 L/kg | half-life [1, 8]: 1.1 ± 0.3 h | Cmax [1, 8]: 2790 ± 476 ng/mL | Tmax ([1]; female, oral, only CYP2C19*1/*1 subjects, Fed, women, mean ± SD, read-out: Tmax): 6.2 ± 1.1 h | AUC(0-inf) [1, 9]: 7320 ± 2710 ng·h/mL | CL/F [1, 9]: 1.83 mL/min/kg | Vd/F [1, 9]: 0.16 ± 0.03 L/kg | half-life [1, 9]: 1.1 ± 0.3 h | Cmax [1, 9]: 3240 ± 859 ng/mL | Tmax ([1]; female, po, Fast, women, single oral dose, mean ± SD, read-out: Tmax): 2.9 ± 0.8 h | AUC(0-inf) [1, 10]: 4660 ± 1790 ng·h/mL | CL/F [1, 10]: 2.83 mL/min/kg | Vd/F [1, 10]: 0.28 ± 0.12 L/kg | half-life [1, 10]: 1.2 ± 0.7 h | Cmax [1, 10]: 2700 ± 614 ng/mL | Tmax ([1]; female, po, Fed, women, single oral dose, mean ± SD, read-out: Tmax): 8.4 ± 3.7 h | AUC(0-inf) [1, 11]: 4780 ± 2470 ng·h/mL | CL/F [1, 11]: 2.33 mL/min/kg | Vd/F [1, 11]: 0.2 ± 0.02 L/kg | half-life [1, 11]: 1.3 ± 0.5 h | Cmax [1, 11]: 2020 ± 493 ng/mL | Tmax ([1]; male, oral, only CYP2C19*1/*1 subjects, Fast, men, mean ± SD, read-out: Tmax): 3 ± 0.7 h | AUC(0-inf) [1, 12]: 4520 ± 2520 ng·h/mL | CL/F [1, 12]: 2.5 mL/min/kg | Vd/F [1, 12]: 0.23 ± 0.03 L/kg | half-life [1, 12]: 1.2 ± 0.6 h | Cmax [1, 12]: 2560 ± 581 ng/mL | Tmax ([1]; male, oral, only CYP2C19*1/*1 subjects, Fed, men, mean ± SD, read-out: Tmax): 5.3 ± 1.1 h | AUC(0-inf) [1, 13]: 6580 ± 3830 ng·h/mL | CL/F [1, 13]: 1.83 mL/min/kg | Vd/F [1, 13]: 0.18 ± 0.03 L/kg | half-life [1, 13]: 1.5 ± 0.7 h | Cmax [1, 13]: 2320 ± 581 ng/mL | Tmax ([1]; male, po, Fast, men, single oral dose, mean ± SD, read-out: Tmax): 3.1 ± 0.8 h | AUC(0-inf) [1, 14]: 4610 ± 2270 ng·h/mL | CL/F [1, 14]: 2.5 mL/min/kg | Vd/F [1, 14]: 0.25 ± 0.08 L/kg | half-life [1, 14]: 1.3 ± 0.5 h | Cmax [1, 14]: 2590 ± 601 ng/mL | Tmax ([1]; male, po, Fed, men, single oral dose, mean ± SD, read-out: Tmax): 5.6 ± 1.1 h | Ke ([1]; only CYP2C19*1/*1 subjects, Fast, men and women, mean ± SD): 0.64 ± 0.19 | Ke ([1]; only CYP2C19*1/*1 subjects, Fast, men, mean ± SD): 0.64 ± 0.23 | Ke ([1]; only CYP2C19*1/*1 subjects, Fast, women, mean ± SD): 0.63 ± 0.12 | Ke ([1]; only CYP2C19*1/*1 subjects, Fed, men and women, mean ± SD): 0.67 ± 0.20 | Ke ([1]; only CYP2C19*1/*1 subjects, Fed, men, mean ± SD): 0.67 ± 0.25 | Ke ([1]; only CYP2C19*1/*1 subjects, Fed, women, mean ± SD): 0.68 ± 0.14
Structure (SMILES): COc1ccnc(C[S+]([O-])c2nc3ccc(OC(F)F)cc3[nH]2)c1OC (stereo not drawn) [Pantoprazole, pantoprazole]
effect of concomitant intake of a standard breakfast on bioavailability [2]: no effect on bioavailability
